Laboratory results published in PMC7044277 (Nature Communications, 2020).
“And” between values parts separate entries of the source, which are not always exact repeats. Equal entries are not always repeated.

Tests used:
[1] = molecular target: DRD3 (Homo sapiens, UniProt P35462); assay: β-arrestin2 recruitment (Tango); type: cell-based; conditions: DRD3; Tango; read-out: EC50 ± SEM
[2] = molecular target: T1, DRD4 (D4.4 variant) wild-type (Homo sapiens, UniProt P21917); assay: Radioligand competition binding, [3H]-N-methylspiperone; conditions: DRD4; [3H]-methylspiperone (0.8-1.0 nM); read-out: Ki
T1 sequence (P21917 1-419): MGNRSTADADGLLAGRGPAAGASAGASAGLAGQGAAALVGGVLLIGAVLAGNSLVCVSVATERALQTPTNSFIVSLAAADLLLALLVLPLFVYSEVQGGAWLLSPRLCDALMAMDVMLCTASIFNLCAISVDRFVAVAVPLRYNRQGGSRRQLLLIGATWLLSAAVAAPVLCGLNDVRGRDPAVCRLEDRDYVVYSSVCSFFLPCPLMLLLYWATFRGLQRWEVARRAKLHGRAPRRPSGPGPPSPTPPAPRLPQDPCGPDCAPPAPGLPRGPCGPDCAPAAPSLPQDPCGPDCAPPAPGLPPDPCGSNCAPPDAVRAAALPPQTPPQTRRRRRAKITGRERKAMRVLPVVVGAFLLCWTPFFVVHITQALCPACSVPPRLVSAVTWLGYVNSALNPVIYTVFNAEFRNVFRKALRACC

[3] = molecular target: DRD2 F1103.28A (Homo sapiens, UniProt P14416, F110A); type: binding; design: expressed in transfected cells; host or cells: HEK293T (ATCC CRL-11268); conditions: DRD2 F1103.28A
Chain of DRD2 F1103.28A (P14416 whole entry F110A): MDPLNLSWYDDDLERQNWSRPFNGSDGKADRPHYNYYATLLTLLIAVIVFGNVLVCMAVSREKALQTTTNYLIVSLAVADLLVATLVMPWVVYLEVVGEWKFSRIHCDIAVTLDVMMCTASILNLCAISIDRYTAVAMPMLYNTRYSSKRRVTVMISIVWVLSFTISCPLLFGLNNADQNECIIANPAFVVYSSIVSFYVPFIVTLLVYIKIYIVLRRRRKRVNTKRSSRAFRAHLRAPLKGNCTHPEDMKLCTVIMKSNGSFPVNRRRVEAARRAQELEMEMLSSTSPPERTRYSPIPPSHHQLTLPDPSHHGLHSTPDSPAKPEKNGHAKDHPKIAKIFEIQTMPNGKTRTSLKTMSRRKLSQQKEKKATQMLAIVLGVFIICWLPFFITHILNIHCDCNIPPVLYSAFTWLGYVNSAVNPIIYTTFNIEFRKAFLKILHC

[4] = molecular target: T2, DRD4 (D4.4 variant) (Homo sapiens, UniProt P21917); assay: β-arrestin2 recruitment (Tango); type: cell-based; conditions: DRD4; Tango; read-out: EC50 ± SEM
T2 sequence (P21917 1-419): T1 sequence (P21917 1-419)

[5] = molecular target: T3, DRD2 (D2 long receptor) (Homo sapiens, UniProt P14416); assay: Gαi/o-mediated cAMP inhibition (GloSensor split-luciferase cAMP reporter), HEK293T; type: cell-based; conditions: for Response, Fig_S11b dose-response: individual replicates;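 for all read-outs here: compounds applied 15 min at room temperature, then luciferin plus 400 nM isoproterenol to raise cAMP through endogenous β2-adrenergic receptors, luminescence read 15 min later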
T3 sequence (P14416 whole entry): as the sequence (P14416 whole entry F110A) above, with A110F counted along it

[6] = molecular target: DRD2 (D2 long receptor) wild-type (Homo sapiens, UniProt P14416); assay: Radioligand competition binding, [3H]-N-methylspiperone, HEK293T membranes; conditions: DRD2; [3H]-methylspiperone (0.8-1.0 nM); read-out: Ki
Chain of DRD2 (D2 long receptor) wild-type (P14416 whole entry): as the sequence (P14416 whole entry F110A) above, with A110F counted along it

[7] = molecular target: T3, DRD2 (D2 long receptor); assay: β-arrestin2 recruitment (Tango), HTLA cells; type: cell-based; conditions: for Response, Fig_S11c dose-response: individual replicates; for response, Fig S11c dose-response source data: reference of the scale not given here
[8] = molecular target: DRD3 wild-type (Homo sapiens, UniProt P35462); assay: Radioligand competition binding, [3H]-N-methylspiperone
Chain of DRD3 wild-type (P35462 whole entry): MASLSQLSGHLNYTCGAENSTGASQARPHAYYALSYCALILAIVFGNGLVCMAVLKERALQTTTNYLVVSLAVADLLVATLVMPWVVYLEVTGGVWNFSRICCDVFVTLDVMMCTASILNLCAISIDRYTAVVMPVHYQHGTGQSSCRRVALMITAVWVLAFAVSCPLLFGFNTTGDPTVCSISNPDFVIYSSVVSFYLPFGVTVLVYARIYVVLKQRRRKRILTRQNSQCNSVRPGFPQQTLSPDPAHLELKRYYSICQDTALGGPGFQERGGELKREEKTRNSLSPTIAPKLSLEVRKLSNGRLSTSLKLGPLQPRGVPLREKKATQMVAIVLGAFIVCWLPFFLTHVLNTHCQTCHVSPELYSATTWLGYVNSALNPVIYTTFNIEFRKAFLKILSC

[9] = molecular target: T2, DRD4 (D4.4 variant); assay: Gαi/o-mediated cAMP inhibition (GloSensor); type: cell-based; conditions: DRD4; agonist, cAMP inhibition; read-out: EC50 ± SEM

Chain of DRD3 (P35462 whole entry): as above

CC(NCC1(O)CCCCC1)c1cc2cccc(O)c2o1.Cl (stereo not drawn) [O2LE6]
EC50 [1]: > 10 µM | Ki [2]: > 10 µM | pKi ± SEM [3]: 5.24±0.17 | Ki ([3]; read-out: Ki): 5.75 µM | EC50 [4]: > 10 µM | EC50 ([5]; DRD2, agonist, Gαi/o-mediated cAMP inhibition, read-out: EC50 ± SEM): > 10 µM | Response, Fig_S11b dose-response ([5]; Log[Drug] -5): 2.57 and -6.2065 and 9.406 and 22.878 and 21.3481 and -11.9066 and 1.916 | Response, Fig_S11b dose-response ([5]; Log[Drug] -5.52): 6.28 and 4.868 and 17.437 and 8.981 and 7.366 and 4.306 and -2.8216 and 10.8339 and 3.867 | Response, Fig_S11b dose-response ([5]; Log[Drug] -6): -4.6609 and -0.5921 | Response, Fig_S11b dose-response ([5]; Log[Drug] -6.52): -4.5336 and 10.5534 and 15.2708 and -15.8082 and -11.6836 | Response, Fig_S11b dose-response ([5]; Log[Drug] -7): 2.459 and 17.8523 and -17.1557 and -9.0384 and -5.1068 and -4.6609 and -7.169 | Response, Fig_S11b dose-response ([5]; Log[Drug] -7.52): -18.3605 and -3.0503 and 3.567 and -20.6831 and -11.3334 and 8.381 and -20.49 | Response, Fig_S11b dose-response ([5]; Log[Drug] -8): -13.294 and 23.168 and -7.9784 and -20.598 and -10.4409 and -9.4634 and -20.4343 | Response, Fig_S11b dose-response ([5]; Log[Drug] -8.52): 0.7703 and -10.5254 and -9.1135 and 3.329 and -12.6933 and -0.7512 and -34.034 and -13.4672 and -11.5164 | Response, Fig_S11b dose-response ([5]; Log[Drug] -9): 2.182 and 8.19 and 4.563 and -3.0886 and 6.152 and -13.6902 and -0.3134 | Response, Fig_S11b dose-response ([5]; Log[Drug] -9.52): -7.1755 and -21.4059 and -24.6779 and -18.9406 and -5.1068 and 6.486 | Response, Fig_S11b dose-response ([5]; Log[Drug] -10): -19.2464 and 38.0628 and -6.9263 and -30.0753 and -2.0262 and 6.261 and -22.9424 and -9.1198 and -15.8639 | Response, Fig_S11b dose-response ([5]; Log[Drug] -10.52): -15.9241 and -8.3937 and 23.898 and 3.978 and -13.6344 | Response, Fig_S11b dose-response ([5]; Log[Drug] -11): -21.7935 and 4.314 and -22.2642 and -20.2156 and 2.7337 and -9.1755 | Response, Fig_S11b dose-response ([5]; Log[Drug] -11.52): 5.117 and 27.9022 and 12.3983 and -0.5921 and -2.4314 and -6.9461 | Response, Fig_S11b dose-response ([5]; Log[Drug] -12): 6.64 and -0.2818 and -18.9406 and 16.0358 and 13.8258 and -18.8737 and -20.713 and -0.5921 | Ki [6]: > 10 µM | EC50 ([7]; DRD2, β-arrestin2 recruitment (Tango), read-out: EC50 ± SEM): > 10 µM | response, Fig_S11c dose-response source data ([7]; Fig_S11c, Log[Drug] -5, replicate values): 16.7808 and 14.8237 and 14.215 and 18.5342 and 14.2817 and 15.7604 and 11.4227 and 17.086 and 21.2736 | Response, Fig_S11c dose-response ([7]; Log[Drug] -6.52): 3.717 | Response, Fig_S11c dose-response ([7]; Log[Drug] -7): 2.811 and 3.15 and 4.053 and 3 and 2.812 and 3.498 and 5.616 and 3.218 and 2.5633 | Response, Fig_S11c dose-response ([7]; Log[Drug] -7.52): 2.895 and 3.102 and 3.119 and 2.48 and 2.571 and 2.809 and 3.052 and 1.009 and 2.448 | Response, Fig_S11c dose-response ([7]; Log[Drug] -8): 2.815 and 2.652 and 3.1462 and 2.523 and 2.762 and 2.623 and 2.494 and 3.6148 and 1.539 | Response, Fig_S11c dose-response ([7]; Log[Drug] -8.52): 3.296 and 2.4132 and 3.209 and 2.229 and 3.453 and 2.266 and 3.066 and 1.184 and 1.383 | Response, Fig_S11c dose-response ([7]; Log[Drug] -9): 2.8445 and 2.312 and 2.494 and 3.046 and 2.174 and 2.343 and 1.927 and 6.732 and 6.534 | Response, Fig_S11c dose-response ([7]; Log[Drug] -9.52): 2.362 and 2.4976 and 2.923 and 2.359 and 2.154 and 2.345 and 3.43 and 1.364 and 3.781 | Response, Fig_S11c dose-response ([7]; Log[Drug] -10): 3.645 and 2.627 and 2.787 and 2.06 and 2.1828 and 2.292 and 2.6786 and 2.1344 and 1.378 | Response, Fig_S11c dose-response ([7]; Log[Drug] -10.52): 2.259 and 2.232 and 2.66 and 2.1982 and 2.238 and 2.169 and 4.722 and 1.378 and 2.323 | Response, Fig_S11c dose-response ([7]; Log[Drug] -11): 2.37 and 2.502 and 2.312 and 2.1828 (2×) and 2.084 and 1.9407 and 3.057 and 2.849 | Response, Fig_S11c dose-response ([7]; Log[Drug] -11.52): 2.185 and 2.208 and 2.688 and 2.5566 and 2.233 and 3.071 and 1.779 and 1.392 and 2.508 | Response, Fig_S11c dose-response ([7]; Log[Drug] -12): 2.133 and 2.211 and 2.421 and 5.046 and 2.173 and 2.317 and 0.6771 and 1.599 and 1.023 | Ki ([8]; DRD3, [3H]-methylspiperone (0.8-1.0 nM), read-out: Ki): 3.47 µM | pKi ± SEM ([8]; DRD3 wild-type): 5.46±0.10 | EC50 [9]: > 10 µM
